Data set [1] deals with non-GCB DLBCL. In words: Phoenix phase III randomized trial of R-CHOP with or without ibrutinib, analysed by LymphGen genetic subtype. The class given is in vivo, human. The note with it: younger patients (age≤60) with N1 DLBCL (n=13).
Data set [2] deals with non-GCB DLBCL. The note with it: cited from earlier work.

This is an account of results in patent US20230010803A1, “TREATMENTS FOR DIFFUSE LARGE B-CELL LYMPHOMA” (Janssen Pharmaceutica NV, priority 2021, published 2023).

On to `C=CC(=O)N1CCC[C@@H](n2nc(-c3ccc(Oc4ccccc4)cc3)c3c(N)ncnc32)C1` [ibrutinib], for which, in the data set with non-GCB DLBCL [1], the “3-year EFS” value turned out to be 100% and the “3-year OS” value was found to be 100%. Also, the “toxicity compared to the placebo arm” value with non-GCB DLBCL [2] (older patients on the ibrutinib arm) is on record as “significantly more toxicity”. Also, the “toxicity of addition of ibrutinib to R-CHOP” value with non-GCB DLBCL [2] (younger patients with non-GCB DLBCL) is “did not significantly increase toxicity”.
